Results from patent US10550155B2, “Anticancer peptides” (priority 2018, dated 2020).
Where two headings read alike, the source gives them in different places. Where a SMILES comes first, the peptide text is derived from it. Bridges are numbered along the chain shown (N, C = ends). Roman numbers before positions name the chains, in order. Where no end group is shown, it is not given here. [ ]: non-standard residue; d: D form.

How the values were obtained:
[1] = system: MCF-7 human breast cancer cell line; assay: MTT cytotoxicity assay, MCF-7 cells; format: cell-based
Description: (§1) The cytotoxic as well as antiproliferative effect of peptides was determined using MTT [3-(4, 5-dimethylthiazol-2-yl)-2, 5-diphenyl tetrazolium bromide] colorimetric assay. MCF-7, NIH-3T3, HeLa and H460 cells were cultured and after confluency, cells were used to test the cytotoxicity by MTT assay. Briefly (3×10^4/mL) of MCF-7 and (2×10^4/mL) cells of NIH-3T3, HeLa and H460 were seeded in 96-wells plate and incubated at 37° C. in 5% CO2 for 24 h. The MCF-7 cells were then treated with different doses of peptides and re-incubated in 5% CO2 at 37° C. for 48 hours. […] Experiment was performed three times and all doses were repeated in triplicate and the calculations were done using formula for percent inhibition.

HeLa cells = assay: MTT cytotoxicity assay, HeLa cells; format: cell-based
Description: as §1

[2] = system: DoHH2 cells (B-cell lymphoma); assay: Alamar blue viability assay, DoHH2 cells; format: cell-based
Description: The viability of DoHH2 cells was determined by Alamar blue assay. Briefly 200 μl of 1×10^5 cells/ml were incubated with different concentrations of compounds for 24 hours. A one-tenth volume of Alamar blue was then added and the incubation continued for 4 hrs. Absorbance was read in spectrophotometer at wavelengths of 570 nm and 600 nm.

H460 cells = assay: MTT cytotoxicity assay, H460 cells; format: cell-based
Description: as §1

[3] = system: NIH-3T3 murine fibroblast cell line; assay: MTT cytotoxicity assay, 3T3 cells; format: cell-based, mouse
Description: as §1

[4] = MTT cytotoxicity assay, 3T3 cells; format: cell-based, mouse; settings: mouse; for IC50: Cytotoxicity IC50, 3T3
Description: as §1

[5] = system: bacteria, yeasts, fungi, and protozoa; settings: cited from earlier work
[6] = system: Leishmania infantum promastigote and amastigote; settings: cited from earlier work
fibroblasts = settings: cited from earlier work
human erythrocytes = settings: cited from earlier work
THP-1 monocytes = settings: cited from earlier work
[7] = system: THP-1-derived macrophages; settings: cited from earlier work
HepG2 cells = settings: cited from earlier work
MCF-7 cells = assay: Cell-growth on bead assay; format: cell-based, human; settings: peptide on bead
[8] = MTT, 48 hours, read-out: Cytotoxicity IC50, MCF-7
[9] = Alamar blue, 24 hours, read-out: Cytotoxicity IC50, DoHH2
[10] = MTT, 48 hours, read-out: Cytotoxicity IC50, H460
[11] = MTT, 48 hours, read-out: Cytotoxicity IC50, HeLa

## COc1cccc2c1C(=O)c1c(O)c3c(c(O)c1C2=O)C[C@@](O)(C(=O)CO)C[C@@H]3O[C@H]1C[C@H](N)[C@H](O)[C@H](C)O1 [Doxorubicin, reference compound]
[1]; Homo sapiens, MCF7, 48 h, read-out: Cytotoxicity IC50, MCF-7
  IC50: 1.6 ± 0.2 µM
HeLa cells; Homo sapiens, HeLa, 48 h, read-out: Cytotoxicity IC50, HeLa
  IC50: 5.7 ± 0.36 µM

## CC[C@H](C)[C@H](NC(=O)[C@@H](C)NC(=O)[C@H](CO)NC(=O)[C@H](CC(C)C)NC(=O)[C@@H](N)Cc1ccccc1)C(=O)N[C@H](C(=O)N[C@H](C)C(=O)N[C@@H](CCSC)C(=O)N[C@@H](CC(C)C)C(=O)NCC(=O)N[C@@H](CCCCN)C(=O)N[C@@H](CC(C)C)C(=O)N[C@@H](Cc1ccccc1)C(N)=O)C(C)C [compound 5, F-L-S-a-I-V-a-M-L-G-K-L-F] (H-FLS[dA]IV[dA]MLGKLF-NH2)
[1]; human, 48 h
  IC50: 29.5 ± 6.03 µM
[2]; human, 24 h
  IC50: > 100 µM
H460 cells; human, 48 h
  IC50: 37.3 ± 3.5 µM
[3]
  Cytotoxicity against 3T3 cell line (in words): no cytotoxicity
[4]
  IC50 at 48 h: > 100 µM
HeLa cells; human, 48 h
  IC50: > 100 µM

## CC[C@H](C)[C@H](NC(=O)[C@@H](C)NC(=O)[C@H](CO)NC(=O)[C@H](CC(C)C)NC(=O)[C@@H](N)Cc1ccccc1)C(=O)N[C@H](C(=O)N[C@H](C)C(=O)N[C@@H](CCSC)C(=O)N[C@@H](CC(C)C)C(=O)N[C@H](C)C(=O)N[C@@H](CCCCN)C(=O)N[C@@H](CC(C)C)C(=O)N[C@@H](Cc1ccccc1)C(N)=O)C(C)C [compound 6, F-L-S-a-I-V-a-M-L-a-K-L-F] (H-FLS[dA]IV[dA]ML[dA]KLF-NH2)
[1]; human, 48 h
  IC50: 26.3 ± 5.8 µM
[2]; human, 24 h
  IC50: > 100 µM
H460 cells; human, 48 h
  IC50: > 100 µM
[3]
  Cytotoxicity against 3T3 cell line (in words): inactive
[4]
  IC50 at 48 h: > 100 µM
HeLa cells; human, 48 h
  IC50: > 100 µM

## CC[C@H](C)[C@H](NC(=O)CNC(=O)[C@H](CO)NC(=O)[C@H](CC(C)C)NC(=O)[C@@H](N)Cc1ccccc1)C(=O)N[C@H](C(=O)NCC(=O)N[C@@H](CCSC)C(=O)N[C@@H](CC(C)C)C(=O)NCC(=O)N[C@@H](CCCCN)C(=O)N[C@@H](CC(C)C)C(=O)N[C@@H](Cc1ccccc1)C(N)=O)C(C)C [peptide 1, F-L-S-G-I-V-G-M-L-G-K-L-F, reference compound] (H-FLSGIVGMLGKLF-NH2)
[1]; MTT
  Activity against MCF-7 cell line (in words): active
[1]; [8]
  IC50: 14.5 ± 0.57 µM
[2]; Alamar blue
  Activity against DoHH2 cell line (in words): no cytotoxicity
[2]; [9]
  IC50: > 100 µM
[5]
  Antimicrobial / antibacterial activity (literature): potent inhibitor
[6]
  Antiparasitic activity (literature): antiparasitic activity
fibroblasts
  Cytotoxicity on fibroblasts (literature): no cytotoxicity
H460 cells; MTT
  Activity against H460 cell line (in words): active
H460 cells; [10]
  IC50: 34.5 ± 1.5 µM
Human erythrocytes
  Cytotoxicity on human erythrocytes (literature): low cytotoxicity
[4]
  IC50: 73.3 ± 0.07 µM
THP-1 monocytes
  Cytotoxicity on THP-1 monocytes (literature): low cytotoxicity
HeLa cells; MTT
  Activity against HeLa cell line (in words): active
HeLa cells; [11]
  IC50: 18.4 ± 0.92 µM
[7]
  Cytotoxicity on THP-1-derived macrophages (literature): low cytotoxicity

## CC[C@H](C)[C@H](NC(=O)CNC(=O)[C@H](CO)NC(=O)[C@H](CC(C)C)NC(=O)[C@@H](N)Cc1ccccc1)C(=O)N[C@H](C(=O)NCC(=O)N[C@@H](CCSC)C(=O)N[C@@H](CC(C)C)C(=O)N[C@H](C)C(=O)N[C@@H](CCCCN)C(=O)N[C@@H](CC(C)C)C(=O)N[C@@H](Cc1ccccc1)C(N)=O)C(C)C [peptide 4, F-L-S-G-I-V-G-M-L-a-K-L-F] (H-FLSGIVGML[dA]KLF-NH2)
[1]; MTT, 48 hours, listed as SEQ ID NO: 4, read-out: Cytotoxicity IC50, MCF-7
  IC50: 16 to 24 µM
[1]; [8]
  IC50: 16.2 ± 2.2 µM
[2]; [9]
  IC50: > 100 µM
H460 cells; MTT, 48 hours, listed as SEQ ID NO: 4, read-out: Cytotoxicity IC50, H460
  IC50: 16 to 24 µM
H460 cells; [10]
  IC50: 24.3 ± 0.84 µM
[3]
  Cytotoxicity against 3T3 cell line (in words): cytotoxic
[3]; mouse
  IC50: 16 ± 3.7 µM
[4]
  IC50: 16 to 24 µM
HeLa cells; MTT, 48 hours, listed as SEQ ID NO: 4, read-out: Cytotoxicity IC50, HeLa
  IC50: 16 to 24 µM
HeLa cells; [11]
  IC50: 22.7 ± 0.86 µM

## CC[C@H](C)[C@H](NC(=O)CNC(=O)[C@H](CO)NC(=O)[C@H](CC(C)C)NC(=O)[C@@H](N)Cc1ccccc1)C(=O)N[C@H](C(=O)NCC(=O)N[C@@H](CCSC)C(=O)N[C@@H](CC(C)C)C(=O)N[C@H](C)C(=O)N[C@@H](CCCCNC(=O)[C@H](CC(C)C)NC(=O)[C@H](Cc1ccccc1)NC(=O)[C@H](CCCCN)NC(=O)[C@H](CCC(N)=O)NC(=O)[C@H](Cc1ccc(O)cc1)NC(=O)[C@H](C)NC(=O)[C@H](C)NC(=O)[C@H](CCC(=O)O)NC(=O)[C@H](CC(C)C)NC(=O)[C@@H](N)Cc1c[nH]c2ccccc12)C(=O)N[C@@H](CC(C)C)C(=O)N[C@@H](Cc1ccccc1)C(N)=O)C(C)C [conjugate 7] (I: H-FLSGIVGML[dA]KLF-NH2 / II: H-WLEAAYQKFL; amide I:11-II:C)
[2]; human, 24 h
  IC50: > 100 µM
H460 cells; human, 48 h
  IC50: > 100 µM
[4]
  IC50 at 48 h: > 100 µM
HeLa cells; human, 48 h
  IC50: > 100 µM

## CC[C@H](C)[C@H](NC(=O)CNC(=O)[C@H](CO)NC(=O)[C@H](CC(C)C)NC(=O)[C@@H](N)Cc1ccccc1)C(=O)N[C@H](C(=O)N[C@H](C)C(=O)N[C@@H](CCSC)C(=O)N[C@@H](CC(C)C)C(=O)NCC(=O)N[C@@H](CCCCN)C(=O)N[C@@H](CC(C)C)C(=O)N[C@@H](Cc1ccccc1)C(N)=O)C(C)C [compound 3, F-L-S-G-I-V-a-M-L-G-K-L-F] (H-FLSGIV[dA]MLGKLF-NH2)
[1]; human, 48 h
  IC50: 22.4 ± 2.2 µM
[2]; human, 24 h
  IC50: > 100 µM
H460 cells; human, 48 h
  IC50: > 100 µM
[3]
  Cytotoxicity against 3T3 cell line (in words): inactive
[4]
  IC50 at 48 h: > 100 µM
HeLa cells; human, 48 h
  IC50: > 100 µM

## CC[C@H](C)[C@H](NC(=O)[C@@H](C)NC(=O)[C@H](CO)NC(=O)[C@H](CC(C)C)NC(=O)[C@@H](N)Cc1ccccc1)C(=O)N[C@H](C(=O)NCC(=O)N[C@@H](CCSC)C(=O)N[C@@H](CC(C)C)C(=O)NCC(=O)N[C@@H](CCCCN)C(=O)N[C@@H](CC(C)C)C(=O)N[C@@H](Cc1ccccc1)C(N)=O)C(C)C [compound 2, F-L-S-a-I-V-G-M-L-G-K-L-F] (H-FLS[dA]IVGMLGKLF-NH2)
[1]; [8]
  IC50: 17.9 ± 1.1 µM
[2]; [9]
  IC50: > 100 µM
H460 cells; [10]
  IC50: > 100 µM
[3]
  Cytotoxicity against 3T3 cell line (in words): inactive
[4]
  IC50: > 100 µM
HeLa cells; [11]
  IC50: > 100 µM

## [K^3] temporin-SHa
[5]
  Antimicrobial / antibacterial activity (literature): more potent antimicrobial activity than temporin-SHa

## [A^2,6,9] temporin-SHa [[A^2,6,9] SHa]
[5]
  Antimicrobial / antibacterial activity (literature): lack the antibacterial and antiparasitic activity
[6]
  Antiparasitic activity (literature): lack the antibacterial and antiparasitic activity
THP-1 monocytes
  Cytotoxicity on THP-1 monocytes (literature): inactive
HepG2 cells
  Cytotoxicity on HepG2 cells (literature): inactive

## CC[C@H](C)[C@H](NC(=O)CNC(=O)[C@H](CO)NC(=O)[C@H](CC(C)C)NC(=O)[C@@H](N)Cc1ccccc1)C(=O)N[C@H](C(=O)NCC(=O)N[C@@H](CCSC)C(=O)N[C@@H](CC(C)C)C(=O)N[C@H](C)C(=O)N[C@@H](CCCCN)C(=O)N[C@@H](CC(C)C)C(=O)N[C@@H](Cc1ccccc1)C(=O)N[C@@H](CCCCNC(=O)[C@H](CCCCNC(=O)[C@H](CC(C)C)NC(=O)[C@H](Cc1ccccc1)NC(=O)[C@H](CCCCN)NC(=O)[C@H](CCC(N)=O)NC(=O)[C@H](Cc1ccc(O)cc1)NC(=O)[C@H](C)NC(=O)[C@H](C)NC(=O)[C@H](CCC(=O)O)NC(=O)[C@H](CC(C)C)NC(=O)[C@@H](N)Cc1c[nH]c2ccccc12)NC(=O)[C@H](Cc1ccccc1)NC(=O)[C@H](CC(C)C)NC(=O)[C@H](CCCCN)NC(=O)[C@@H](C)NC(=O)[C@H](CC(C)C)NC(=O)[C@H](CCSC)NC(=O)CNC(=O)[C@@H](NC(=O)[C@@H](NC(=O)CNC(=O)[C@H](CO)NC(=O)[C@H](CC(C)C)NC(=O)[C@@H](N)Cc1ccccc1)[C@@H](C)CC)C(C)C)C(N)=O)C(C)C [conjugate 8] (I: H-FLSGIVGML[dA]KLFK-NH2 / II: H-FLSGIVGML[dA]KLFK / III: H-WLEAAYQKFL; amide I:14-II:C, II:14-III:C (inferred); N-terminus assumed)
[1]; human, 48 h
  IC50: 1.7 µM
[2]; human, 24 h
  IC50: > 100 µM
H460 cells; MTT
  Activity against H460 cell line (in words): active
H460 cells; human, 48 h
  IC50: 14.3 ± 0.7 µM
[3]
  Cytotoxicity against 3T3 cell line (in words): no cytotoxicity
[4]
  IC50 at 48 h: > 100 µM
HeLa cells; MTT
  Activity against HeLa cell line (in words): active
HeLa cells; human, 48 h
  IC50: 8.7 ± 0.65 µM

## WLEAAYQKFL (not fully specified) [peptide A, breast cancer targeting peptide ligand]
MCF-7 cells
  Binding to MCF-7 cells: strong binding

## [A^2,6,9, K^3] temporin-SHa [[A^2,6,9, K^3] SHa]
[5]
  Antimicrobial / antibacterial activity (literature): lack the antibacterial and antiparasitic activity
[6]
  Antiparasitic activity (literature): lack the antibacterial and antiparasitic activity
THP-1 monocytes
  Cytotoxicity on THP-1 monocytes (literature): inactive
HepG2 cells
  Cytotoxicity on HepG2 cells (literature): inactive
